Question: What does the source list for `COC(=O)c1ccc2cc(C(=O)OC)ccc2c1`?
Answer: solubility (mole fraction) (in DMAc, 299.11 K): 0.00345; solubility (mole fraction) (in DMAc, 315.05 K): 0.0072; solubility (mole fraction) (in DMAc, 320.35 K): 0.00895; solubility (mole fraction) (in DMAc, 326.25 K): 0.0112; solubility (mole fraction) (in DMAc, 330.38 K): 0.0129; solubility (mole fraction) (in DMAc, 337.27 K): 0.0167; solubility (mole fraction) (in DMAc, 342.39 K): 0.0202; solubility (mole fraction) (in DMAc, 352.75 K): 0.0301; solubility (mole fraction) (in DMAc, 358.55 K): 0.0377; solubility (mole fraction) (in DMAc, 364.4 K): 0.0452; solubility (mole fraction) (in DMAc, 370.8 K): 0.0573; solubility (mole fraction) (in DMAc, 376.26 K): 0.0674; solubility (mole fraction) (in DMAc, 381.71 K): 0.0814; solubility (mole fraction) (in DMAc, 383.38 K): 0.0855; solubility (mole fraction) (in DMAc, 387.01 K): 0.0963; solubility (mole fraction) (in DMAc, 391.14 K): 0.107; solubility (mole fraction) (in DMAc, 392.17 K): 0.112; solubility (mole fraction) (in DMF, 303.31 K): 0.00253; solubility (mole fraction) (in DMF, 309.36 K): 0.00341; solubility (mole fraction) (in DMF, 317.9 K): 0.00521; solubility (mole fraction) (in DMF, 329.65 K): 0.00884; solubility (mole fraction) (in DMF, 335.43 K): 0.0116; solubility (mole fraction) (in DMF, 342.21 K): 0.015; solubility (mole fraction) (in DMF, 349.85 K): 0.0193; solubility (mole fraction) (in DMF, 357.96 K): 0.0272; solubility (mole fraction) (in DMF, 362.73 K): 0.0323; solubility (mole fraction) (in DMF, 366.6 K): 0.0396; solubility (mole fraction) (in DMF, 368.38 K): 0.0408; solubility (mole fraction) (in DMF, 373.02 K): 0.0495; solubility (mole fraction) (in DMF, 377.86 K): 0.0574; solubility (mole fraction) (in DMF, 379.66 K): 0.0611; solubility (mole fraction) (in DMF, 382.14 K): 0.0661; solubility (mole fraction) (in DMF, 383.38 K): 0.0699; solubility (mole fraction) (in DMSO, 298.28 K): 0.000669; solubility (mole fraction) (in DMSO, 308.07 K): 0.00113; solubility (mole fraction) (in DMSO, 316.57 K): 0.00179; solubility (mole fraction) (in DMSO, 324.97 K): 0.00272; solubility (mole fraction) (in DMSO, 340.85 K): 0.00537; solubility (mole fraction) (in DMSO, 347.18 K): 0.00726; solubility (mole fraction) (in DMSO, 353.35 K): 0.00952; solubility (mole fraction) (in DMSO, 356.66 K): 0.0109; solubility (mole fraction) (in DMSO, 365.19 K): 0.0157; solubility (mole fraction) (in DMSO, 369.88 K): 0.016; solubility (mole fraction) (in DMSO, 374.65 K): 0.0226; solubility (mole fraction) (in DMSO, 386.85 K): 0.0352; solubility (mole fraction) (in DMSO, 394.81 K): 0.0471; solubility (mole fraction) (in DMSO, 405.07 K): 0.069; solubility (mole fraction) (in NMP, 293.2 K): 0.0056; solubility (mole fraction) (in NMP, 296.73 K): 0.00577; solubility (mole fraction) (in NMP, 300.48 K): 0.00606; solubility (mole fraction) (in NMP, 303.5 K): 0.00632; solubility (mole fraction) (in NMP, 308.77 K): 0.00669; solubility (mole fraction) (in NMP, 311.81 K): 0.00687; solubility (mole fraction) (in NMP, 317.1 K): 0.0074; solubility (mole fraction) (in NMP, 322.89 K): 0.00803; solubility (mole fraction) (in NMP, 328.16 K): 0.00864; solubility (mole fraction) (in NMP, 336.69 K): 0.00914; solubility (mole fraction) (in NMP, 345.34 K): 0.0103; solubility (mole fraction) (in NMP, 354.23 K): 0.0115; solubility (mole fraction) (in NMP, 360.09 K): 0.0125; solubility (mole fraction) (in NMP, 368.69 K): 0.0132; solubility (mole fraction) (in NMP, 375.38 K): 0.016; solubility (mole fraction) (in NMP, 383.36 K): 0.0167; solubility (mole fraction) (in NMP, 393.2 K): 0.0195; solubility (mole fraction) (in NMP, 404.46 K): 0.0251; solubility (mole fraction) (in NMP, 409.92 K): 0.0271; solubility (mole fraction) (in NMP, 414.36 K): 0.0299; solubility (mole fraction) (in NMP, 418.83 K): 0.0328; solubility (mole fraction) (in NMP, 423.7 K): 0.0379; solubility (mole fraction) (in NMP, 425.77 K): 0.0399; solubility (mole fraction) (in acetic acid, 292.49 K): 0.00051; solubility (mole fraction) (in acetic acid, 295.65 K): 0.000621; solubility (mole fraction) (in acetic acid, 300.35 K): 0.000804; solubility (mole fraction) (in acetic acid, 306.86 K): 0.00116; solubility (mole fraction) (in acetic acid, 311.63 K): 0.00147; solubility (mole fraction) (in acetic acid, 316.5 K): 0.0019; solubility (mole fraction) (in acetic acid, 320.65 K): 0.00232; solubility (mole fraction) (in acetic acid, 323 K): 0.00254; solubility (mole fraction) (in acetic acid, 329.15 K): 0.00381; solubility (mole fraction) (in acetic acid, 333.47 K): 0.00428; solubility (mole fraction) (in acetic acid, 337.2 K): 0.0051; solubility (mole fraction) (in acetic acid, 343.3 K): 0.00657; solubility (mole fraction) (in acetic acid, 350.13 K): 0.00833; solubility (mole fraction) (in acetic acid, 357.38 K): 0.0113; solubility (mole fraction) (in acetic acid, 362.8 K): 0.0143; solubility (mole fraction) (in acetic acid, 366.66 K): 0.0169; solubility (mole fraction) (in acetic acid, 372.51 K): 0.0217; solubility (mole fraction) (in acetic acid, 375.64 K): 0.0248; solubility (mole fraction) (in acetic acid, 381.78 K): 0.0304; solubility (mole fraction) (in acetic acid, 385.96 K): 0.0352; solubility (mole fraction) (in acetic acid, 392.47 K): 0.046; solubility (mole fraction) (in acetic acid, 394.71 K): 0.0493; solubility (mole fraction) (in acetic acid, 398.5 K): 0.0564; solubility (mole fraction) (in acetic acid, 400.54 K): 0.0607
